Key:
Assay in all cases: CETSA-MS, MDA-MB-231 intact cells
Format in all cases: cell-based
Conditions in all cases: 2 μM and 20 μM
PIP4P2 = molecular target: T1, PIP4P2 (Homo sapiens, UniProt Q8N4L2)
T1 construct: endogenous in cells; host or cells: MDA-MB-231
Outline: (§1)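 Cells (TNBC line MDA-MB-231, grown 37° C., 5% CO2) split into four arms, incubated, then heat-challenged on a gradient; supernatant proteins precipitated with cold acetone, digested, isobarically labeled, analyzed by MS.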

ARRB2 = molecular target: T2, ARRB2 (Homo sapiens, UniProt P32121)
T2 construct: endogenous in cells; host or cells: MDA-MB-231
Outline: as §1

JMY = molecular target: T3, JMY (Homo sapiens, UniProt Q8N9B5)
T3 construct: endogenous in cells; host or cells: MDA-MB-231
Outline: as §1

LAMA5 = molecular target: T4, LAMA5 (Homo sapiens, UniProt O15230)
T4 construct: endogenous in cells; host or cells: MDA-MB-231
T4 sequence (O15230 36-3695): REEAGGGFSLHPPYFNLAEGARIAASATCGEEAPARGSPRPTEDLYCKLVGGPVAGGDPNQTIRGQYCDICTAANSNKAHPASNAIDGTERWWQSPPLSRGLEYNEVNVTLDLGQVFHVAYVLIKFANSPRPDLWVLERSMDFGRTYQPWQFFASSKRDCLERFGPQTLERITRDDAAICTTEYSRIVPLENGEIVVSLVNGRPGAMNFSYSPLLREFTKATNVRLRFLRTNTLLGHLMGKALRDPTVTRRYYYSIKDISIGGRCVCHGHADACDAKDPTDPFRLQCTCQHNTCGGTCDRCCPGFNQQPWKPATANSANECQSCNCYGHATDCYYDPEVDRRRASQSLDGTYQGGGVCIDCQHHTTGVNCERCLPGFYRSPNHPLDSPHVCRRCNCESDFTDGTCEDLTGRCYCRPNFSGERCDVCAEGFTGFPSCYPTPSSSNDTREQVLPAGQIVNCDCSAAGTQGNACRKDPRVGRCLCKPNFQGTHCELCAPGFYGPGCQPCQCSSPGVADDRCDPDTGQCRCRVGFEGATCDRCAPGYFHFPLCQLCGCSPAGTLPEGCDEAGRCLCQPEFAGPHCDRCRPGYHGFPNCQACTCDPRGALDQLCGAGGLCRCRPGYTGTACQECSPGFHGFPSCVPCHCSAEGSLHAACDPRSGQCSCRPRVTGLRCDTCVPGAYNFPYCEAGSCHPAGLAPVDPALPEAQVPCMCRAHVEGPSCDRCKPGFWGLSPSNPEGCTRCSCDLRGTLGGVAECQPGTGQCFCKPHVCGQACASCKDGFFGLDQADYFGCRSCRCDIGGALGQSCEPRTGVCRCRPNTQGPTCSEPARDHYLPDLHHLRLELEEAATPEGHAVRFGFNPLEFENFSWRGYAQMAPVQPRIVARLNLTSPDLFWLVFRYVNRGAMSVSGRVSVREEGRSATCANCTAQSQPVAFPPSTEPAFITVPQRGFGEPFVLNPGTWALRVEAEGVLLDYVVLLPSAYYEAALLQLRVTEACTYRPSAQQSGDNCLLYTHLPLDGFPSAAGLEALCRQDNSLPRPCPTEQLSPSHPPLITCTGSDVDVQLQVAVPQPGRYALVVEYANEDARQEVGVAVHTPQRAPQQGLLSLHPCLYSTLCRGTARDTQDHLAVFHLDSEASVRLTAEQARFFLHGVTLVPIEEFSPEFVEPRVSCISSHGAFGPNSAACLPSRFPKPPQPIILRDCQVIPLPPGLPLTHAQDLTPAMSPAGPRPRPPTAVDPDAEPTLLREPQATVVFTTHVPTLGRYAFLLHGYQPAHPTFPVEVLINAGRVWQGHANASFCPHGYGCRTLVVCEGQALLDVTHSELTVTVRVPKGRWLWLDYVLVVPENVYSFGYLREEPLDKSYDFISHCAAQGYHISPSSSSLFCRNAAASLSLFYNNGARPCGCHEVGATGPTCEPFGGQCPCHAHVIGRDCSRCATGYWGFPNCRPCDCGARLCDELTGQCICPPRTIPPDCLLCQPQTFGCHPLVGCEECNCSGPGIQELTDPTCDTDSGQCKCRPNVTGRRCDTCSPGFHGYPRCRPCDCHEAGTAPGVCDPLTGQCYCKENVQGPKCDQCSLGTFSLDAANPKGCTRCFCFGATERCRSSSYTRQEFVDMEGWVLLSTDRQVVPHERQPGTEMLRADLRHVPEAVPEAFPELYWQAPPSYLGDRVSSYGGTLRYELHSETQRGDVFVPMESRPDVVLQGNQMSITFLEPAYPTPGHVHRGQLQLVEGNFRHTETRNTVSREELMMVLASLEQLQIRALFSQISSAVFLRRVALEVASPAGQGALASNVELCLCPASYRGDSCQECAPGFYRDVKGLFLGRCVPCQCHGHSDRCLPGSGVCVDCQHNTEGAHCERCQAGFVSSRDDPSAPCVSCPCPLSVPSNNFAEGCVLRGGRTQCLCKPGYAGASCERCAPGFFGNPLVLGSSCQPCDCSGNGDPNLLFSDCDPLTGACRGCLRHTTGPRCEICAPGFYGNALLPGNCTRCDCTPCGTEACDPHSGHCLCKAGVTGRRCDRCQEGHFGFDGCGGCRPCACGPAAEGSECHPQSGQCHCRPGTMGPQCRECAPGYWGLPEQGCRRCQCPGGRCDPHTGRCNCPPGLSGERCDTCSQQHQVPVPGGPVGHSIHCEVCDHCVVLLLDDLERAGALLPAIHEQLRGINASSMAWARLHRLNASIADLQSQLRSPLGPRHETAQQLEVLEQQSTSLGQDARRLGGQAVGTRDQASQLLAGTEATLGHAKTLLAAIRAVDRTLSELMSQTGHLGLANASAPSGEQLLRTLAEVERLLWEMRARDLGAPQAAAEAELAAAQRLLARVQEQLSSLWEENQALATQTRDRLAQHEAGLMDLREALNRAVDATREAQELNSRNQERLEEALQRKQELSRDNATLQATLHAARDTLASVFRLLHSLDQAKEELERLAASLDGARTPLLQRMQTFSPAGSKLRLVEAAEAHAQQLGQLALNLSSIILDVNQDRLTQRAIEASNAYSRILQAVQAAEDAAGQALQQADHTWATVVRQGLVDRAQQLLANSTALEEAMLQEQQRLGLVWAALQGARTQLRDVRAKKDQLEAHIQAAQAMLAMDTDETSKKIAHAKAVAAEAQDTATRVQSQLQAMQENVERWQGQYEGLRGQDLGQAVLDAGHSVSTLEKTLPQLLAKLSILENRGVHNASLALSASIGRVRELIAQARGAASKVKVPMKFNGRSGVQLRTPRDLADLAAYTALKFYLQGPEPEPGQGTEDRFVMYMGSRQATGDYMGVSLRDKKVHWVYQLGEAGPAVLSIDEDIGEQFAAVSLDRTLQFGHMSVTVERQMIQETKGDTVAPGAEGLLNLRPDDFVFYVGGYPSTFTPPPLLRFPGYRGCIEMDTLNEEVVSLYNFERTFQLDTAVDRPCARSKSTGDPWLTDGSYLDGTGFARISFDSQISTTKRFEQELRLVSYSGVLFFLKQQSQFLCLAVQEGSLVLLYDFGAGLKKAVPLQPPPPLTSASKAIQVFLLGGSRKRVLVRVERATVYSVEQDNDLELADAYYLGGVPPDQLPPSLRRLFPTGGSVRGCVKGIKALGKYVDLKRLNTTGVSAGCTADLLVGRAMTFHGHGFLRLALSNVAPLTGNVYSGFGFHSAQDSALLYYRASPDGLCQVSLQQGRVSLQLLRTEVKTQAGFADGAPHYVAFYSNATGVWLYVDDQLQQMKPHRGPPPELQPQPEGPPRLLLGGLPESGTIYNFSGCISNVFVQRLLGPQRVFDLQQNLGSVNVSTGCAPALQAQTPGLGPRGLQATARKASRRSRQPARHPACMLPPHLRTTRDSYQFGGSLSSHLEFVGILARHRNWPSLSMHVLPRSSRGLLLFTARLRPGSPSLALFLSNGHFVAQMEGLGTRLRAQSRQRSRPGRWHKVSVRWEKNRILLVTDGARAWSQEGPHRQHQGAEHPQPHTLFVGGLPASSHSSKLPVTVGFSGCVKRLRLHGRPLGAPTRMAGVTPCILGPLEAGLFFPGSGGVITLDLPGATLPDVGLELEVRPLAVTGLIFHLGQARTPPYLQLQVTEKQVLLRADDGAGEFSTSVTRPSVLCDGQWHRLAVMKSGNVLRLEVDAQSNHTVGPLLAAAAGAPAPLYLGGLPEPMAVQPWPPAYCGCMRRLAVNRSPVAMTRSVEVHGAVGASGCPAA
Outline: as §1

LYPLA2 = molecular target: T5, LYPLA2 (Homo sapiens, UniProt O95372)
T5 construct: endogenous in cells; host or cells: MDA-MB-231
Outline: as §1

LRRC59 = molecular target: T6, LRRC59 (Homo sapiens, UniProt Q96AG4)
T6 construct: endogenous in cells; host or cells: MDA-MB-231
Outline: as §1

AP2A1 = molecular target: T7, AP2A1 (Homo sapiens, UniProt O95782)
T7 construct: endogenous in cells; host or cells: MDA-MB-231
Outline: as §1

ELAVL1 = molecular target: T8, ELAVL1 (Homo sapiens, UniProt Q15717)
T8 construct: 148 targets unique to Compound 1 in MDA-MB-231 intact cells; endogenous in cells; host or cells: MDA-MB-231
Outline: as §1

ILF3 = molecular target: T9, ILF3 (Homo sapiens, UniProt Q12906)
T9 construct: endogenous in cells; host or cells: MDA-MB-231
Outline: as §1

METTL18 = molecular target: T10, METTL18 (Homo sapiens, UniProt O95568)
T10 construct: endogenous in cells; host or cells: MDA-MB-231
T10 sequence (O95568 whole entry): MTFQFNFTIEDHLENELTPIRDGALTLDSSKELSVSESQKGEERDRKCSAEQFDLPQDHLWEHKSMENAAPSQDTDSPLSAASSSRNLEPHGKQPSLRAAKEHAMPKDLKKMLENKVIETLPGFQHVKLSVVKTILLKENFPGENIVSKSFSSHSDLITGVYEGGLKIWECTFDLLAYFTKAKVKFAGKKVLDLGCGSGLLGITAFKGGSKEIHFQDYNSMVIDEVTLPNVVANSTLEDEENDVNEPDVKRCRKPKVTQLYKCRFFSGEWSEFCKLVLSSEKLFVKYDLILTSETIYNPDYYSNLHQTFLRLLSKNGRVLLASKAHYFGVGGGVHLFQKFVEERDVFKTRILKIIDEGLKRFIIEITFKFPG
Outline: as §1

LRCH4 = molecular target: T11, LRCH4 (Homo sapiens, UniProt O75427)
T11 construct: endogenous in cells; host or cells: MDA-MB-231
Outline: as §1

CBX5 = molecular target: T12, CBX5 (Homo sapiens, UniProt P45973)
T12 construct: endogenous in cells; host or cells: MDA-MB-231
T12 sequence (P45973 whole entry): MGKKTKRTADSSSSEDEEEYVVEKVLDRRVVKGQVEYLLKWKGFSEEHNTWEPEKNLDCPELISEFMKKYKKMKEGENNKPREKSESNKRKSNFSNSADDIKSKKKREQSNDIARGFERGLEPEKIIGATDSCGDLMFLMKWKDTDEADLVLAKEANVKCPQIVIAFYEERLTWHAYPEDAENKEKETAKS
Outline: as §1

LAMC1 = molecular target: T13, LAMC1 (Homo sapiens, UniProt P11047)
T13 construct: endogenous in cells; host or cells: MDA-MB-231
Outline: as §1

UFL1 = molecular target: T14, UFL1 (Homo sapiens, UniProt O94874)
T14 construct: endogenous in cells; host or cells: MDA-MB-231
Outline: as §1

AHCTF1 = molecular target: T15, AHCTF1 (Homo sapiens, UniProt Q8WYP5)
T15 construct: endogenous in cells; host or cells: MDA-MB-231
Outline: as §1

HNRNPUL2 = molecular target: T16, HNRNPUL2 (Homo sapiens, UniProt Q1KMD3)
T16 construct: endogenous in cells; host or cells: MDA-MB-231
Outline: as §1

INCENP = molecular target: T17, INCENP (Homo sapiens, UniProt Q9NQS7)
T17 construct: endogenous in cells; host or cells: MDA-MB-231
Outline: as §1

CCN1 = molecular target: T18, CCN1 (Homo sapiens, UniProt O00622)
T18 construct: endogenous in cells; host or cells: MDA-MB-231
Outline: as §1

MARK2 = molecular target: T19, MARK2 (Homo sapiens, UniProt Q7KZI7)
T19 construct: endogenous in cells; host or cells: MDA-MB-231
Outline: as §1

CDK7 = molecular target: T20, CDK7 (Homo sapiens, UniProt P50613)
T20 construct: endogenous in cells; host or cells: MDA-MB-231
Outline: as §1

SMAD1 = molecular target: T21, SMAD1 (Homo sapiens, UniProt Q15797)
T21 construct: endogenous in cells; host or cells: MDA-MB-231
Outline: as §1

MRPL55 = molecular target: T22, MRPL55 (Homo sapiens, UniProt Q7Z7F7)
T22 construct: endogenous in cells; host or cells: MDA-MB-231
Outline: as §1

SND1 = molecular target: T23, SND1 (Homo sapiens, UniProt Q7KZF4)
T23 construct: endogenous in cells; host or cells: MDA-MB-231
Outline: as §1

RRAS2 = molecular target: T24, RRAS2 (Homo sapiens, UniProt P62070)
T24 construct: endogenous in cells; host or cells: MDA-MB-231
Outline: as §1

IGFBP4 = molecular target: T25, IGFBP4 (Homo sapiens, UniProt P22692)
T25 construct: endogenous in cells; host or cells: MDA-MB-231
Outline: as §1

MAN2A1 = molecular target: T26, MAN2A1 (Homo sapiens, UniProt Q16706)
T26 construct: endogenous in cells; host or cells: MDA-MB-231
Outline: as §1

MICALL2 = molecular target: T27, MICALL2 (Homo sapiens, UniProt Q8IY33)
T27 construct: endogenous in cells; host or cells: MDA-MB-231
Outline: as §1

SYNCRIP = molecular target: T28, SYNCRIP (Homo sapiens, UniProt O60506)
T28 construct: endogenous in cells; host or cells: MDA-MB-231
T28 sequence (O60506 whole entry): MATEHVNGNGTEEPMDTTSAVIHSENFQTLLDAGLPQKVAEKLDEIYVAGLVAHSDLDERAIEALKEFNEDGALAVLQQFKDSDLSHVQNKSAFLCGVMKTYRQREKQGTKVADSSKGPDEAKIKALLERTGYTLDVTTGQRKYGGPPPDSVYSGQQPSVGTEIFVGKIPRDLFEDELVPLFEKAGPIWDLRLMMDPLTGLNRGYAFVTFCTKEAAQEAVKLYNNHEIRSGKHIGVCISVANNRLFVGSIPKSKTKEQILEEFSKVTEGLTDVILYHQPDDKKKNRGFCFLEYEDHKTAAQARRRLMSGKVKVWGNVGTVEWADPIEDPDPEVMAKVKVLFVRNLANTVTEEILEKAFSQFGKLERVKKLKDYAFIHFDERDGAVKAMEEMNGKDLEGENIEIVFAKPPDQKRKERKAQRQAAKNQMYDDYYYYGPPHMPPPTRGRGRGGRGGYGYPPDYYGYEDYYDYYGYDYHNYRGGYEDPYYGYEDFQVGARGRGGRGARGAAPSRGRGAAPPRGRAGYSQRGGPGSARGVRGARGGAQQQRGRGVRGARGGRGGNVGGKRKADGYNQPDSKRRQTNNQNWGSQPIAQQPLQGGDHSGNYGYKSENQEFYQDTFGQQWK
Outline: as §1

BMP2K = molecular target: T29, BMP2K (Homo sapiens, UniProt Q9NSY1)
T29 construct: endogenous in cells; host or cells: MDA-MB-231
Outline: as §1

CAVIN3 = molecular target: T30, CAVIN3 (Homo sapiens, UniProt Q969G5)
T30 construct: endogenous in cells; host or cells: MDA-MB-231
Outline: as §1

RNF5 = molecular target: T31, RNF5 (Homo sapiens, UniProt Q99942)
T31 construct: endogenous in cells; host or cells: MDA-MB-231
Outline: as §1

ADAR = molecular target: T32, ADAR (Homo sapiens, UniProt P55265)
T32 construct: endogenous in cells; host or cells: MDA-MB-231
Outline: as §1

MAP3K20 = molecular target: T33, MAP3K20 (Homo sapiens, UniProt Q9NYL2)
T33 construct: endogenous in cells; host or cells: MDA-MB-231
Outline: as §1

MAP2K5 = molecular target: T34, MAP2K5 (Homo sapiens, UniProt Q13163)
T34 construct: endogenous in cells; host or cells: MDA-MB-231
Outline: as §1

WTAP = molecular target: T35, WTAP (Homo sapiens, UniProt Q15007)
T35 construct: endogenous in cells; host or cells: MDA-MB-231
Outline: as §1

LAMTOR2 = molecular target: T36, LAMTOR2 (Homo sapiens, UniProt Q9Y2Q5)
T36 construct: endogenous in cells; host or cells: MDA-MB-231
Outline: as §1

T1 sequence (Q8N4L2 whole entry): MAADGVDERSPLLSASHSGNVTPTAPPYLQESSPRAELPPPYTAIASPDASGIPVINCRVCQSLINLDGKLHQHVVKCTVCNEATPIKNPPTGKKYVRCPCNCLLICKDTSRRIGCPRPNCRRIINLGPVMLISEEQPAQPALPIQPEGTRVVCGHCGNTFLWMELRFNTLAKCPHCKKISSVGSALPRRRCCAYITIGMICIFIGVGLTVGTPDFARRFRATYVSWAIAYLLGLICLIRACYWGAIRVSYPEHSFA

CN1CCN(c2ccc(Nc3ncc4cc(C#N)c(=O)n(C5CCCC5)c4n3)cc2)CC1 [Compound 1, 8-cyclopentyl-2-((4-(4-methylpiperazin-1-yl)phenyl)amino)-7-oxo-7,8-dihydropyrido[2,3-d]pyrimidine-6-carbonitrile]
Group (CETSA-MS thermal shift) (PIP4P2): Stabilization | Group (CETSA-MS thermal shift) (ARRB2): Stabilization | Group (CETSA-MS thermal shift) (JMY): Stabilization | Group (CETSA-MS thermal shift) (LAMA5): Stabilization | Group (CETSA-MS thermal shift) (LYPLA2): Destabilization | Group (CETSA-MS thermal shift) (LRRC59): Stabilization | Group (CETSA-MS thermal shift) (AP2A1): Destabilization | Group (CETSA-MS thermal shift) (ELAVL1): Stabilization | Group (CETSA-MS thermal shift) (ILF3): Stabilization | Group (CETSA-MS thermal shift) (METTL18): Stabilization | Group (CETSA-MS thermal shift) (LRCH4): Stabilization | Group (CETSA-MS thermal shift) (CBX5): Stabilization | Group (CETSA-MS thermal shift) (LAMC1): Stabilization | Group (CETSA-MS thermal shift) (UFL1): Stabilization | Group (CETSA-MS thermal shift) (AHCTF1): Stabilization | Group (CETSA-MS thermal shift) (HNRNPUL2): Stabilization | Group (CETSA-MS thermal shift) (INCENP): Stabilization | Group (CETSA-MS thermal shift) (CCN1): Stabilization | Group (CETSA-MS thermal shift) (MARK2): Destabilization | Group (CETSA-MS thermal shift) (CDK7): Destabilization | Group (CETSA-MS thermal shift) (SMAD1): Destabilization | Group (CETSA-MS thermal shift) (MRPL55): Stabilization | Group (CETSA-MS thermal shift) (SND1): Stabilization | Group (CETSA-MS thermal shift) (RRAS2): Stabilization | Group (CETSA-MS thermal shift) (IGFBP4): Stabilization | Group (CETSA-MS thermal shift) (MAN2A1): Stabilization | Group (CETSA-MS thermal shift) (MICALL2): Destabilization | Group (CETSA-MS thermal shift) (SYNCRIP): Stabilization | Group (CETSA-MS thermal shift) (BMP2K): Stabilization | Group (CETSA-MS thermal shift) (CAVIN3): Stabilization | Group (CETSA-MS thermal shift) (RNF5): Stabilization | Group (CETSA-MS thermal shift) (ADAR): Stabilization | Group (CETSA-MS thermal shift) (MAP3K20): Destabilization | Group (CETSA-MS thermal shift) (MAP2K5): Destabilization | Group (CETSA-MS thermal shift) (WTAP): Stabilization | Group (CETSA-MS thermal shift) (LAMTOR2): Stabilization
